Where a name gives a salt, the structure may show the parent alone.
Tests used:
[1] = Solubility in pure water at 25° C. (Test Example 1)
[2] = disclosed in WO2006/069363A2; cited from earlier work
[3] = Storage stability at 25° C., 60% RH for 6 months; assay type: physicochemical

| Compound | solubility ([1]; in water, 25° C., listed as Lorcaserin hydrochloride hemihydrate (the known)) [mg/mL] | solubility ([1]; pure water, 25 °C, water, thermodynamic from solid) [mg/mL] | hygroscopicity [2] | stability among crystalline Forms I, II and III [2] | purity and crystalline form after storage [3] |
| --- | --- | --- | --- | --- | --- |
| C[C@H]1CNCCc2ccc(Cl)cc21 [lorcaserin hydrochloride hemihydrate, (R)-8-chloro-1-methyl-2,3,4,5-tetrahydro-1H-3-benzazepine] | >200 | > 200 | poor hygroscopicity | the most stable form |  |
| cocrystal of lorcaserin hydrochloride and benzoic acid [the cocrystal] |  |  |  |  | unchanged |

Source: patent publication US9981912B2, “Cocrystal of lorcaserin, preparation methods, pharmaceutical compositions and uses thereof” (priority 2014, dated 2018)
